The subject of data set [1] is radical prostatectomy patients. The following applies: cited from earlier work.
In data set [2] the test system is LPS-induced human primary monocytes. Kind of data set: Release of cytokines (IL-6, TNF-α, IL-8, IL-1β) and PGE2 from LPS-induced human primary monocytes (ELISA, normalized to LPS = 100%). It is filed as cell-based. The following applies: for effect on secretion of all proinflammatory cytokines tested (IL-6, IL-1β, TNF-α, IL-8): 0.1 μM-250 μM; for inhibition at 50 µM / inhibition at 250 µM: Homo sapiens, Monocyte. (In general: An ELISA detects its analyte on a solid surface through an enzyme-linked reagent.)

A further data set deals with rodents. The settings on record: cited from earlier work.
The subject of a further data set is human primary monocytes. Kind of data set: Viability of human primary monocytes (Alamar Blue). The following applies: 50 μM and 250 μM; for viability of human primary monocytes: then 24 h LPS. On the technique in general: Alamar Blue is a resazurin reagent that responds to reducing activity.
A further data set has as its system rats. The settings on record: cited from earlier work.
The next data set has as its system COVID-19 patients. The following applies: cited from earlier work.
Setting [3] is: 30 min pre-treatment, then 24 h LPS.
Setting [4] is: 50 μM and 250 μM, 24 h pre-treatment, then 24 h LPS.
The mark [5] stands for this setting: 50 μM, 48 h pre-treatment, then 24 h LPS.
Where [6] appears, read: 250 μM, 30 min pre-treatment, then 24 h LPS.
Where [7] appears, read: 250 μM, 24 h pre-treatment, then 24 h LPS.
[8] abbreviates: 50 μM and 250 μM, 48 h pre-treatment, then 24 h LPS.
Setting [9] is: 250 μM, 30 min pre-treatment, then 24 h LPS, read-out: inhibition of LPS-induced IL-1β release.
Where [10] appears, read: 250 μM, 30 min pre-treatment, then 24 h LPS, read-out: inhibition of LPS-induced IL-6 release.
Where [11] appears, read: 250 μM, 30 min pre-treatment, then 24 h LPS, read-out: inhibition of LPS-induced IL-8 release.
The mark [12] stands for this setting: 250 μM, 30 min pre-treatment, then 24 h LPS, read-out: inhibition of LPS-induced TNF-α release.
Setting [13] is: 250 μM, 24 h pre-treatment, then 24 h LPS, read-out: inhibition of LPS-induced IL-6 release.
Where [14] appears, read: 250 μM, 24 h pre-treatment, then 24 h LPS, read-out: inhibition of LPS-induced TNF-α release.
Setting [15] is: 250 μM, 48 h pre-treatment, then 24 h LPS, read-out: inhibition of LPS-induced TNF-α release.

Counter-ions that a name gives are not always drawn. Like-named read-outs stand apart in the source and are kept apart here.

On to `CN[C@]1(c2ccccc2Cl)CCCCC1=O` [S-ketamine, (S)-ketamine], for which, in data set [1], the “surgery-associated increase in IL-6” value was “attenuates” and the “surgery-associated increase in TNF” value is listed as “attenuates”.
Turning to `N[C@]1(c2ccccc2Cl)CCC[C@H](O)C1=O` [(2S,6S)-hydroxynorketamine hydrochloride, (2S,65)-2-amino-2-(2-chlorophenyl)-6-hydroxycyclohexanone], the “effect on secretion of all proinflammatory cytokines tested (IL-6, IL-1β, TNF-α, IL-8)” value (“effect on secretion” below) in data set [2] (setting [3]) is given as “cytokines release decrease in a dose dependent manner”. Further, the “effect on LPS-induced IL-8 release” value in data set [2] (setting [4]) is reported as “not affected”. The “inhibition of LPS-induced TNF-α release” value in data set [2] (setting [5]) is recorded as “approx. 30%”. Moreover, in data set [2] (setting [6]), the “inhibition of LPS-induced IL-1β release” value is approximately 20%, the “inhibition of LPS-induced IL-6 release” value is listed as approximately 20%, the “inhibition of LPS-induced IL-8 release” value is approximately 20% and the “inhibition of LPS-induced TNF-α release” value is “approx. 30%”. In addition, in data set [2] (setting [7]), the “inhibition of LPS-induced IL-6 release” value is “about 10%” and the “inhibition of LPS-induced TNF-α release” value was “approx. 30%”. The “inhibition of LPS-induced TNF-α release” value in data set [2] (250 μM, 48 h pre-treatment, then 24 h LPS) is listed as “approx. 40%”. For the same compound, the antidepressant-relevant behavioral responses result with rodents was “exert antidepressant-relevant behavioral responses”.
On to `NC1(c2ccccc2Cl)CCC=CC1=O` (racemic) [(R,S)-dehydronorketamine], for which, in data set [2] (setting [4]), the “effect on IL-6 secretion” value is on record as “dramatically reduced all cytokines release”, the “effect on LPS-induced IL-8 release” value is listed as “dramatically reduced all cytokines release”, the “effect on PGE2 secretion” value is given as “dramatically reduced” and the “effect on TNF-α secretion” value is given as “dramatically reduced all cytokines release”. Further, in data set [2] (setting [8]), the “effect on IL-6 secretion” value is “dramatically reduced all cytokines release”, the “effect on LPS-mediated IL-8 release” value is “dramatically reduced all cytokines release”, the “effect on PGE2 secretion” value was “dramatically reduced” and the “effect on TNF-α secretion” value is given as “dramatically reduced all cytokines release”. In addition, the “viability of human primary monocytes” value with human primary monocytes (24 h pre-treatment) is “highly toxic to the cells”. In the data set with human primary monocytes (48 h pre-treatment), the “viability of human primary monocytes” value is on record as “induced a massive cells' mortality”.
As a reminder, the inhibition is the relative decrease from the control value, in per cent. For the compound `CNC1(c2ccccc2Cl)CCCCC1=O` (racemic) [(R,S)-ketamine hydrochloride], the “effect on secretion” value in data set [2] (setting [3]) is “potent inhibitory effect”. The “effect on IL-6 secretion” value in data set [2] (setting [4]) was “inhibition in the secretion”; in data set [2] (setting [8]), “inhibition of TNF-α, IL-6, and PGE2 secretion”. Also, in data set [2] (setting [4]), the “effect on LPS-induced IL-8 release” value is recorded as “without affecting IL-8”. The “effect on PGE2 secretion” value in data set [2] (setting [4]) is “inhibition in the secretion”; in data set [2] (setting [8]), “inhibition of TNF-α, IL-6, and PGE2 secretion”. For the same compound, the “effect on TNF-α secretion” value is “inhibition in the secretion” in data set [2] (setting [4]); “inhibition of TNF-α, IL-6, and PGE2 secretion” in data set [2] (setting [8]). Further, in data set [2] (setting [5]), the inhibition at 50 µM is approximately 40%. Further, the inhibition at 250 µM in data set [2] (setting [9]) was 30 to 60%; in data set [2] (setting [10]) it was 30 to 60%; in data set [2] (setting [11]) it was 30 to 60%; in data set [2] (setting [12]), 30 to 60%; in data set [2] (setting [13]), approximately 30%; in data set [2] (setting [14]), approximately 70%. Moreover, the inhibition at 250 µM in data set [2] (setting [15]) was approximately 75%. Besides, the anesthetic effects result in the data set with rats is “produced anesthetic actions”.
On to `N[C@@]1(c2ccccc2Cl)CCC[C@@H](O)C1=O` [(2R,6R)-2-amino-2-(2-chlorophenyl)-6-hydroxycyclohexanone], for which the “effect on secretion” value in data set [2] (setting [3]) is reported as “cytokines release decrease in a dose dependent manner”. Moreover, the “effect on IL-6 secretion” value is “inhibition in the secretion” in data set [2] (setting [4]); “inhibition of TNF-α, IL-6, and PGE2 secretion” in data set [2] (setting [8]). For the same compound, the “effect on LPS-induced IL-8 release” value in data set [2] (setting [4]) is given as “not affected”. Also, the “effect on PGE2 secretion” value in data set [2] (setting [4]) is “inhibition in the secretion”; in data set [2] (setting [8]) it was “inhibition of TNF-α, IL-6, and PGE2 secretion”. The “effect on TNF-α secretion” value in data set [2] (setting [4]) is “inhibition in the secretion”; in data set [2] (setting [8]), “inhibition of TNF-α, IL-6, and PGE2 secretion”. The inhibition at 50 µM in data set [2] (setting [5]) was approximately 20%. For the same compound, the inhibition at 250 µM is approximately 20% in data set [2] (setting [9]); approximately 20% in data set [2] (setting [10]); approximately 20% in data set [2] (setting [11]); approximately 30% in data set [2] (setting [12]); approximately 35% in data set [2] (setting [13]); approximately 40% in data set [2] (setting [14]). Also, the inhibition at 250 µM in data set [2] (setting [15]) was approximately 55%. In addition, the antidepressant-relevant behavioral responses entry in the data set on rodents was “exert antidepressant-relevant behavioral responses”. The “safety to monocytes (viability), overall conclusion” value with human primary monocytes (24 h and 48 h pre-treatment) was “monocytes safety”.
For the compound `Cc1ccc(-c2cc(C(F)(F)F)nn2-c2ccc(S(N)(=O)=O)cc2)cc1` [Celebrex], the PGE2 levels entry in the data set with COVID-19 patients is given as “significantly reduced”.
As for `C[C@@H]1C[C@H]2[C@@H]3CCC4=CC(=O)C=C[C@]4(C)[C@@]3(F)[C@@H](O)C[C@]2(C)[C@@]1(O)C(=O)CO` [Dexamethasone, dexamethasone], the “reduction of cytokines release” value in data set [2] (10 μM, control, 30 min pre-treatment study (not shown)) is on record as “about 60%”.
In the case of `NC1(c2ccccc2Cl)CCCCC1=O` (racemic) [(R,S)-norketamine], in data set [2] (setting [4]), the “effect on IL-6 secretion” value is given as “remained without any significant change”, the “effect on LPS-induced IL-8 release” value was “remained without any significant change”, the “effect on PGE2 secretion” value was “promoted the secretion of PGE2” and the “effect on TNF-α secretion” value was “inhibited the secretion of TNF-α only at the higher dose tested”. In data set [2] (setting [8]), the “effect on IL-6 secretion” value was “inhibited the secretion of TNF-α and IL-6”; the “effect on PGE2 secretion” value was “promoted the secretion of the proinflammatory agent PGE2 at 250 μM”; the “effect on TNF-α secretion” value was “inhibited the secretion of TNF-α and IL-6”. In addition, the anesthetic effects entry with rats is listed as “produced anesthetic actions”.
With (2R,6R;2S,6S)-HNK, in the data set with rats, the anesthetic effects entry is on record as “no anesthetic or hyperlocomotor effects”.

These data come from patent publication US20230181491A1, “COMPOSITIONS AND METHODS FOR THE TREATMENT AND MANAGEMENT OF INFLAMMATION USING HYDROXYNORKETAMINE” (SPIRIFY PHARMA INC., priority 2020, published 2023).
